Results on ten compounds are retold here after patent US20260176319A1, “PEPTIDE ANALOGS AND METHODS OF USING THE SAME” (Kallyope, Inc., priority 2024, published 2026).

The target in the test is T1, human GRP receptors (Homo sapiens, UniProt P30550).
T1 construct: host or cells: U2OS
Put plainly: IP1 GRPR activity: HTRF IP1-Gq assay in U2OS cells stably expressing human GRP receptors. It is filed as cell-based. The following applies: 90 minutes incubation, read-out: hIP1 GRPR EC50. As to the method:
U2OS cells stably expressing human GRP receptors (DiscoverX, #93-0229C3) were cultured according to manufacturer's instructions. Cells were cultured to […], then collected using AccuTase (Innovative Cell Technologies, #AT104). Cells were washed and plated on a poly-D-lysine-coated 384-well plate (ThermoFisher, #A3890401) at a density of 2,500 cells/well in […] assay buffer (AssayComplete Cell Plating 5 Reagent, DiscoverX #93-0563R5), then incubated overnight at 37° C. and 5% C02. The following morning, a homogenous time-resolved fluorescence (HTRF) assay was performed in a 384-well plate format using the IP1-Gq assay kit (Cisbio, 62IPAPEB). Test compounds were made as a stock in DMSO, then serially diluted to generate 10-point dose response curves in IP1 stimulation buffer. Five microliters of the prepared compounds were then added to the plate containing cells and assay buffer in duplicate, and the cells were incubated at 37° C. and 5% CO2 for 90 minutes. Following compound incubation, […] of IP1 lysis/detection buffer (prepared according to manufacturer's instructions) was added to each well, and the plates were incubated at room temperature for 1 hour. HTRF signals were measured using a plate reader (ClarioSTAR), calculating the ratio between emissions at 665 nm and 620 nm (HTRF ratio). HTRF ratio for positive (Max, […]; SEQ ID NO. 45) and negative (Min, DMSO) controls were used to normalize HTRF data and generate values for % activity. EC50 and Max activity values were determined using a standard 4-parameter fit using GraphPad Prism.
Background: In TR-FRET formats the signal depends on donor and acceptor labels being close together.

Starred links: 1 amine or outer side, 2 acyl side, 3 side chain; linkers in the order of their positions; H or OH if unused. Non-standard residues stand in square brackets, D forms with d. Residues, ends and D or L forms follow the SMILES beside them. *: point of attachment. Trp(7-Me) = Cc1cccc2c(C[C@H](N)C(=O)O)c[nH]c12; C20 diacid = O=C(O)CCCCCCCCCCCCCCCCCCC(=O)*; d(γGlu) = O=C(O)[C@@H](CCC(=O)[*:2])N[*:1]; C18 diacid = O=C(O)CCCCCCCCCCCCCCCCC(=O)*; γGlu = O=C(O)[C@H](CCC(=O)[*:2])N[*:1]; 2Nal = N[C@@H](Cc1ccc2ccccc2c1)C(=O)O; NMeH = CN[C@@H](Cc1c[nH]cn1)C(=O)O; X1 = O=C(CC1(N[*:1])CCC1)[*:2]; X2 = O=C(CC1(N[*:1])CC1)[*:2]; Nle = CCCC[C@H](N)C(=O)O; β3hA = C[C@H](N)CC(=O)O; AEEA = NCCOCCOCC(=O)O; βAla = NCCC(=O)O; Sar = CNCC(=O)O

T1 sequence (P30550 whole entry): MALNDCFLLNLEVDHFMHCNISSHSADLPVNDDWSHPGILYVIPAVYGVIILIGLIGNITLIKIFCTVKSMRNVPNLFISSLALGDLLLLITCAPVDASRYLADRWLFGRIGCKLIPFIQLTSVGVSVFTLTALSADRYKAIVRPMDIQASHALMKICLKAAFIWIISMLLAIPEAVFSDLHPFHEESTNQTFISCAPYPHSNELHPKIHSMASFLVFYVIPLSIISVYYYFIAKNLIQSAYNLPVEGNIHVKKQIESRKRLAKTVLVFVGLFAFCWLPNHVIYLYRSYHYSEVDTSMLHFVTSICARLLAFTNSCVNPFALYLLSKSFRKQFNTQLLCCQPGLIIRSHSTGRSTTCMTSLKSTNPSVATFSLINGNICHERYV

The term EC50 denotes the concentration that produces a half-maximal response. With `CCCC[C@H](NC(=O)[C@H](CC(C)C)NC(=O)[C@H](Cc1c[nH]cn1)NC(=O)[C@@H](C)NC(=O)[C@@H](NC(=O)[C@H](C)NC(=O)[C@H](Cc1c[nH]cn1)NC(=O)[C@H](Cc1c[nH]cn1)NC(=O)[C@H](CCCNC(=N)N)NC(=O)CNC(=O)COCCOCCNC(=O)COCCOCCNC(=O)CC[C@H](NC(=O)CCCCCCCCCCCCCCCCC(=O)O)C(=O)O)C(C)C)C(N)=O` [Peptide 116, Octadecanedioyl-γGlu-OEG-OEG-Gly-Arg-His-His-Ala-Val-D-Ala-His-Leu-Nle-NH2] ({C18 diacid-γGlu-AEEA-AEEA}-GRHHAV[dA]HL[Nle]-NH2), the 50% effective concentration (EC50) is greater than 10000 nM.

Regarding `CCCC[C@H](NC(=O)[C@H](CC(C)C)NC(=O)[C@H](Cc1cnc[nH]1)N(C)C(=O)C[C@H](C)NC(=O)[C@@H](NC(=O)[C@H](C)NC(=O)[C@H](Cc1c[nH]c2c(C)cccc12)NC(=O)[C@H](Cc1c[nH]cn1)NC(=O)[C@H](CCC(N)=O)NC(=O)CNC(=O)COCCOCCNC(=O)COCCOCCNC(=O)CC[C@H](NC(=O)CC[C@H](NC(=O)CCCCCCCCCCCCCCCCCCC(=O)O)C(=O)O)C(=O)O)C(C)C)C(N)=O` [Peptide 270, Eicosanedioyl-γGlu-γGlu-OEG-OEG-Gly-Gln-His-7MeTrp-Ala-Val-BABA-NMeHis-Leu-Nle-NH2] ({C20 diacid-γGlu-γGlu-AEEA-AEEA}-GQH[Trp(7-Me)]AV[β3hA][NMeH]L[Nle]-NH2), the EC50 was 3.8 nM. On to `CCCC[C@H](NC(=O)[C@H](CC(C)C)NC(=O)[C@H](Cc1c[nH]cn1)NC(=O)CCNC(=O)[C@@H](NC(=O)[C@H](C)NC(=O)[C@H](Cc1c[nH]c2c(C)cccc12)NC(=O)[C@H](Cc1c[nH]cn1)NC(=O)[C@H](CCCNC(=N)N)NC(=O)CNC(=O)[C@H](CO)NC(=O)COCCOCCNC(=O)COCCOCCNC(=O)CC[C@H](NC(=O)CC[C@H](NC(=O)CCCCCCCCCCCCCCCCCCC(=O)O)C(=O)O)C(=O)O)C(C)C)C(N)=O` [Peptide 256, Eicosanedioyl-γGlu-Glu-OEG-OEG-Ser-Gly-Arg-His-7MeTrp-Ala-Val-β-Ala-His-Leu-Nle-NH2] ({C20 diacid-γGlu-γGlu-AEEA-AEEA}-SGRH[Trp(7-Me)]AV[βAla]HL[Nle]-NH2), for which the half-maximal effective concentration (EC50) turned out to be 3.7 nM. Consider `CC(C)C[C@H](NC(=O)[C@H](Cc1c[nH]cn1)NC(=O)[C@@H](C)NC(=O)[C@@H](NC(=O)[C@H](C)NC(=O)[C@H](Cc1c[nH]c2ccccc12)NC(=O)[C@H](Cc1c[nH]cn1)NC(=O)[C@H](CC(N)=O)NC(=O)CNC(=O)COCCOCCNC(=O)COCCOCCNC(=O)CC[C@@H](NC(=O)CCCCCCCCCCCCCCCCC(=O)O)C(=O)O)C(C)C)C(=O)N[C@@H](CCCNC(=N)N)C(N)=O` [Peptide 69, Octadecanedioyl-D-γGlu-OEG-OEG-Gly-Asn-His-Trp-Ala-Val-D-Ala-His-Leu-Arg-NH2] ({C18 diacid-d(γGlu)-AEEA-AEEA}-GNHWAV[dA]HLR-NH2), for which the 50% effective concentration (EC50) is greater than 10000 nM.

Consider `CCCC[C@H](NC(=O)[C@H](CC(C)C)NC(=O)[C@H](Cc1c[nH]cn1)NC(=O)CC1(NC(=O)[C@@H](NC(=O)[C@H](C)NC(=O)[C@H](Cc2c[nH]c3ccccc23)NC(=O)[C@H](Cc2c[nH]cn2)NC(=O)[C@H](CCC(N)=O)NC(=O)CNC(=O)COCCOCCNC(=O)COCCOCCNC(=O)CC[C@H](NC(=O)CC[C@H](NC(=O)CCCCCCCCCCCCCCCCCCC(=O)O)C(=O)O)C(=O)O)C(C)C)CCC1)C(N)=O` [Peptide 273, Eicosanedioyl-γGlu-Glu-OEG-OEG-Gly-Gln-His-Trp-Ala-Val-ACBA-His-Leu-Nle-NH2] ({C20 diacid-γGlu-γGlu-AEEA-AEEA}-GQHWAV[X1]HL[Nle]-NH2), for which the EC50 was determined as 12.3 nM.

As to `CCCC[C@H](NC(=O)[C@H](CC(C)C)NC(=O)[C@H](Cc1c[nH]cn1)NC(=O)[C@@H](C)NC(=O)[C@@H](NC(=O)[C@H](C)NC(=O)[C@H](Cc1ccc2ccccc2c1)NC(=O)[C@H](Cc1c[nH]cn1)NC(=O)[C@H](CC(N)=O)NC(=O)CNC(=O)COCCOCCNC(=O)COCCOCCNC(=O)CC[C@H](NC(=O)CCCCCCCCCCCCCCCCC(=O)O)C(=O)O)C(C)C)C(=O)N(C)CC(N)=O` [Peptide 99, Octadecanedioyl-γGlu-OEG-OEG-Gly-Asn-His-2Nal-Ala-Val-D-Ala-His-Leu-Nle-Sar-NH2] ({C18 diacid-γGlu-AEEA-AEEA}-GNH[2Nal]AV[dA]HL[Nle][Sar]-NH2), the EC50 is greater than 10000 nM. In the case of `CCCC[C@H](NC(=O)[C@H](CC(C)C)NC(=O)[C@H](Cc1c[nH]cn1)NC(=O)[C@@H](C)NC(=O)[C@@H](NC(=O)[C@H](C)NC(=O)[C@H](CCCNC(=N)N)NC(=O)[C@H](Cc1c[nH]cn1)NC(=O)[C@H](CC(N)=O)NC(=O)CNC(=O)COCCOCCNC(=O)COCCOCCNC(=O)CC[C@H](NC(=O)CCCCCCCCCCCCCCCCC(=O)O)C(=O)O)C(C)C)C(=O)N(C)CC(N)=O` [Peptide 130, Octadecanedioyl-γGlu-OEG-OEG-Gly-Asn-His-Arg-Ala-Val-D-Ala-His-Leu-Nle-Sar-NH2] ({C18 diacid-γGlu-AEEA-AEEA}-GNHRAV[dA]HL[Nle][Sar]-NH2) it was greater than 10000 nM. On to `CCCC[C@H](NC(=O)[C@H](CC(C)C)NC(=O)[C@H](Cc1c[nH]cn1)NC(=O)[C@@H](C)NC(=O)[C@@H](NC(=O)[C@H](C)NC(=O)[C@H](Cc1c[nH]cn1)NC(=O)[C@H](Cc1c[nH]cn1)NC(=O)[C@H](CC(N)=O)NC(=O)CNC(=O)COCCOCCNC(=O)COCCOCCNC(=O)CC[C@H](NC(=O)CCCCCCCCCCCCCCCCC(=O)O)C(=O)O)C(C)C)C(N)=O` [Peptide 107, Octadecanedioyl-γGlu-OEG-OEG-Gly-Asn-His-His-Ala-Val-D-Ala-His-Leu-Nle-NH2] ({C18 diacid-γGlu-AEEA-AEEA}-GNHHAV[dA]HL[Nle]-NH2), for which the EC50 was greater than 10000 nM. In the case of `CCCC[C@H](NC(=O)[C@H](CC(C)C)NC(=O)[C@H](Cc1c[nH]cn1)NC(=O)CC1(NC(=O)[C@@H](NC(=O)[C@H](C)NC(=O)[C@H](Cc2c[nH]c3ccccc23)NC(=O)[C@H](Cc2c[nH]cn2)NC(=O)[C@H](CCC(N)=O)NC(=O)CNC(=O)COCCOCCNC(=O)COCCOCCNC(=O)CC[C@H](NC(=O)CC[C@H](NC(=O)CCCCCCCCCCCCCCCCCCC(=O)O)C(=O)O)C(=O)O)C(C)C)CC1)C(N)=O` [Peptide 272, Eicosanedioyl-γGlu-γGlu-OEG-OEG-Gly-Gln-His-Trp-Ala-Val-ACPA-His-Leu-Nle-NH2] ({C20 diacid-γGlu-γGlu-AEEA-AEEA}-GQHWAV[X2]HL[Nle]-NH2) it was 6 nM; in that of `CCCC[C@H](NC(=O)[C@H](CC(C)C)NC(=O)[C@H](Cc1c[nH]cn1)NC(=O)[C@@H](C)NC(=O)[C@@H](NC(=O)[C@H](C)NC(=O)[C@H](CCCNC(=N)N)NC(=O)[C@H](Cc1c[nH]cn1)NC(=O)[C@H](CC(N)=O)NC(=O)CNC(=O)COCCOCCNC(=O)COCCOCCNC(=O)CC[C@H](NC(=O)CCCCCCCCCCCCCCCCC(=O)O)C(=O)O)C(C)C)C(N)=O` [Peptide 108, Octadecanedioyl-γGlu-OEG-OEG-Gly-Asn-His-Arg-Ala-Val-D-Ala-His-Leu-Nle-NH2] ({C18 diacid-γGlu-AEEA-AEEA}-GNHRAV[dA]HL[Nle]-NH2), greater than 10000 nM.
